ChEMBL document CHEMBL5226292, “Nonpungent N-AVAM Capsaicin Analogues and Cancer Therapy” (J Med Chem, 2021)
Values after ≈ are worked out from the molar mass of the structure shown.

Experiments:
P388 = assay: Antiproliferative activity in mouse P388 cells assessed as cell growth inhibition by MTT assay; format: functional, cell-based
[1] = Antiproliferative activity in mouse WEHI-3 cells assessed as cell growth inhibition; format: functional, cell-based
J774 = assay: Antiproliferative activity in mouse J774 cells assessed as cell growth inhibition; format: functional, cell-based
[2] = Cytotoxicity against human Bone marrow cell assessed as cell growth inhibition; format: toxicity, cell-based; settings: bone marrow cells
[3] = Antiproliferative activity in human Cervical carcinoma cell assessed as cell growth inhibition; format: functional, cell-based
Ca-Ski = assay: Antiproliferative activity in human Ca-Ski cells assessed as cell growth inhibition; format: functional, cell-based
[4] = Induction of apoptosis in human PBMC cells; format: functional
T47D = assay: Antiproliferative activity in human T47D cells assessed as cell growth inhibition by MTT assay; format: functional, cell-based
[5] = Drug concentration in Sprague-Dawley rat hepatocytes measured after 30 mins relative to control; format: ADME, cell-based, Hepatocyte; settings: 0.5 h
MCF7 = assay: Antiproliferative activity in human MCF7 cells assessed as cell growth inhibition by MTT assay; format: functional, cell-based
[6] = AUC in po dosed mouse; format: ADME, organism-based; set-up: route po; settings: in vivo
C6 = assay: Antiproliferative activity against rat C6 cells assessed as inhibition of cell growth at 10 uM relative to control; format: functional; set-up: scale not given: the % may be the effect or the level left
DMS-114 = assay: Antiproliferative activity in human DMS-114 cells assessed as cell growth inhibition by MTT assay; format: functional, cell-based
[7] = Drug concentration in rat enterocytes measured after 30 to 60 mins relative to control
EFM-19 = assay: Antiproliferative activity in human EFM-19 cells assessed as cell growth inhibition by MTT assay; format: functional, cell-based
[8] = AUC in sc dosed mouse; format: ADME, organism-based; set-up: route sc; settings: in vivo
PPC-1 = assay: Antiproliferative activity in human PPC-1 cells assessed as cell growth inhibition; format: functional, cell-based
TSU = assay: Antiproliferative activity in human TSU cells assessed as cell growth inhibition; format: functional, cell-based

CCCCCC[C@@H](C/C=C\CCCCCCCC(=O)NCc1ccc(O)c(OC)c1)OC(=O)Cc1ccccc1
IC50 (P388): 49 µg/mL (≈ 88.8 µM) | IC50 [1]: 31 µg/mL (≈ 56.2 µM) | IC50 (J774): 10 µg/mL (≈ 18.1 µM) | IC50 [2]: 73 µg/mL (≈ 132 µM) | IC50 [3]: 74 µg/mL (≈ 134 µM) | IC50 (Ca-Ski): 122 µg/mL (≈ 221 µM)

CCCCCCCC/C=C\CCCCCCCC(=O)NCc1ccc(O)c(OC)c1 [OLVANIL]
Activity [4]: 20.5% | IC50 (T47D): 0.75 µM | Drug uptake [5]: 4% | IC50 (MCF7): 1 µM | AUC [6]: 0.1 µg·h/g | Activity (C6): 95% | IC50 (DMS-114): > 50 µM | Drug uptake [7]: 1% | IC50 (EFM-19): 0.7 µM | AUC [8]: 8 µg·h/g

CCCCCC[C@H](O)C/C=C\CCCCCCCC(=O)NCc1ccc(O)c(OC)c1
IC50 (P388): 9 µg/mL (≈ 20.8 µM) | IC50 [1]: 3 µg/mL (≈ 6.92 µM) | IC50 (J774): 8 µg/mL (≈ 18.4 µM) | IC50 [2]: 40 µg/mL (≈ 92.2 µM) | IC50 [3]: 149 µg/mL (≈ 344 µM)

COc1cc(CNC(=O)CCCC/C=C/C(C)C)ccc1O [CAPSAICIN]
IC50 (T47D): 100 µM | IC50 (MCF7): 100 µM | Activity (C6): 20%

CCCCC/C=C\C/C=C\C/C=C\C/C=C\CCCC(=O)NCc1ccc(O)c(OC)c1
Activity [4]: 60% | IC50 (T47D): 0.35 µM | IC50 (MCF7): 0.4 µM | IC50 (DMS-114): 15 µM | IC50 (EFM-19): 0.55 µM | IC50 (PPC-1): 1 µM | IC50 (TSU): 0.1 µM

CC/C=C\C/C=C\C/C=C\CCCCCCCC(=O)NCc1ccc(O)c(OC)c1
IC50 (DMS-114): 15 µM

CCCCC/C=C\C/C=C\CCCCCCCC(=O)NCc1ccc(O)c(OC)c1
IC50 (DMS-114): 43 µM

CCCCCCCCCCCCCCCC(=O)NCc1ccc(O)c(OC)c1
IC50 (T47D): 1.6 µM | IC50 (MCF7): 2.2 µM | IC50 (EFM-19): 1 µM
